Measurements as given in patent US4774251A, “Method of inhibiting aromatase” (Eli Lilly and Company, priority 1984, dated 1988).

Biological target: T1, aromatase (Rattus norvegicus, UniProt P22443)
T1 construct: ovarian microsomes are obtained from rats treated with pregnant mares serum gonadotropin; from tissue; host or cells: ovarian microsomes from rats treated with pregnant mares serum gonadotropin
T1 sequence (P22443 1-508): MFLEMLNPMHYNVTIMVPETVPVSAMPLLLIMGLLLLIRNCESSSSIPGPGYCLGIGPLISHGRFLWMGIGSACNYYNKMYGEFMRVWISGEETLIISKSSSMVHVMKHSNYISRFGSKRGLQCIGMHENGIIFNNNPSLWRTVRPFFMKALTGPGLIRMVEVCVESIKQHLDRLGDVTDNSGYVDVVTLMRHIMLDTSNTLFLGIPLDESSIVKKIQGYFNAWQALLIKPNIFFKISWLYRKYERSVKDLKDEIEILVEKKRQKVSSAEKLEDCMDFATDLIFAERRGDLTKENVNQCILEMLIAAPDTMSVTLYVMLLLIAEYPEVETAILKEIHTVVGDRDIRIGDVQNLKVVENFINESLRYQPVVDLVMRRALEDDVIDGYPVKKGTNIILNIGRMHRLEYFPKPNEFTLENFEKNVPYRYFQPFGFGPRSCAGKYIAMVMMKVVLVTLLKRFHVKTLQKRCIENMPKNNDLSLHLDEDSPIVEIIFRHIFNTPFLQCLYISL
Assay: Aromatase inhibition in the rat ovarian microsome assay
Assay type: biochemical
Details: not given

Row | SMILES | EC50 [nM]
1 | C#CCN(Cc1cccnc1)c1ccc(Cl)cc1Cl [N--(2,4-dichlorophenyl)-N--(2-propynyl)-3-pyridinemethanamine] | 165
2 | CC=CCN(Cc1cccnc1)c1ccc(Cl)cc1Cl [N--(2-butenyl)-N--(2,4-dichlorophenyl)-3-pyridinemethanamine] | 359
3 | CCCCCCN(Cc1cccnc1)c1ccc(Cl)cc1Cl [N--(2,4-dichlorophenyl)-N--hexyl-3-pyridinemethanamine] | 1200

Same assay, conditions: rat ovarian microsomes; substrate 4-androstene-3,17-dione 0.1 μM; [3H]-H2O release

Row | SMILES | EC50 [nM]
4 | Clc1ccc(N(Cc2ccccc2)Cc2cccnc2)c(Cl)c1 [N--(2,4-dichlorophenyl)-N--benzyl-3-pyridinemethanamine] | 310
5 | Fc1ccc(N(Cc2ccccc2)Cc2cccnc2)c(F)c1 [N--(2,4-difluorophenyl)-N--benzyl-3-pyridinemethanamine] | < 50
6 | CCCCN(Cc1ccc(Cl)cc1)c1cnccn1 [N--butyl-N--[(4-chlorophenyl)methyl]pyrazinamine] | 740
7 | CC(c1cccnc1)N(C)c1ccc(Cl)cc1 (stereo not drawn) [N--(4-chlorophenyl)-N,α-dimethyl-3-pyridinemethanamine] | 2000
8 | CCCCN(Cc1cccnc1)c1ccc(C)cc1C [N--butyl-N--(2,4-dimethylphenyl)-3-pyridinemethanamine] | 630
9 | CC(c1cccnc1)N(Cc1ccccc1)c1ccc(Cl)cc1 (stereo not drawn) [N--(4-chlorophenyl)-α-methyl-N--benzyl-3-pyridinemethanamine] | 1200
10 | CCCCN(c1ccc(F)cc1)C(C)c1cccnc1 (stereo not drawn) [N--butyl-N--(4-fluorophenyl)-α-methyl-3-pyridinemethanamine] | 370
11 | CCCCN(c1ccc(Cl)cc1)C(c1ccccc1)c1cccnc1 (stereo not drawn) [N--butyl-N--(4-chlorophenyl)-α-phenyl-3-pyridinemethanamine] | 290
12 | CN(c1ccc(Cl)cc1)C(c1ccccc1)c1cccnc1 (stereo not drawn) [N--(4-chlorophenyl)-N--methyl-α-phenyl-3-pyridinemethanamine] | 2500
13 | C=CCN(Cc1cccnc1)c1ccc(Cl)cc1Cl [N--(2,4-dichlorophenyl)-N--(2-propenyl)-3-pyridinemethanamine] | 750
14 | Fc1ccc(C(Nc2ccccc2Cl)c2cccnc2)cc1 (stereo not drawn) [N--(2-chlorophenyl)-α-(4-fluorophenyl)-3-pyridinemethanamine] | 80

Tested on: uterus (weight stimulated by estrogens produced by aromatization)
Assay: Estrogen synthesis inhibition in rats: uterine weight after testosterone propionate
Assay type: in vivo, rat (immature female Wistar)
Details: 30 ppm in feed (approx. 3 mg/kg/day), 7 days; testosterone-treated control: Test I 180.3, Test II 210.4; corn oil control: 66.7, 101.4
Procedure: Immature female Wistar rats (45-55 grams) were divided into control and test groups of 4-8 animals each. Test compounds were administered for seven days as a component of the diet. Control animals received diet without the test compound. Beginning on the fourth day of the test, all animals treated with the test compound and one half of the control animals were given a subcutaneous injection of 1.0 mg of testosterone propionate in corn oil. The remaining control animals received only an equivalent volume of corn oil. On the seventh day of the test, rats treated with testosterone propionate were injected subcutaneously with 100 μCi of [^3 H]-testosterone in 50 μl of 3:1 (v/v) saline-ethanol.
After two hours, the animals were killed by decapitation. Uteri were isolated, trimmed of extraneous connective tissue, and weighted. […] In the control animals treated with testosterone propionate, estrogens produced by aromatization stimulated the uterus resulting in an increase in weight.

Row | SMILES | Mean Uterine Weight [mg]
15 | Fc1ccc(N(Cc2ccccc2)Cc2cccnc2)c(F)c1 [N--(2,4-difluorophenyl)-N--benzyl-3-pyridinemethanamine] | 196.3
16 | Fc1ccc(C(Nc2ccccc2Cl)c2cccnc2)cc1 (stereo not drawn) [N--(2-chlorophenyl)-α-(4-fluorophenyl)-3-pyridinemethanamine] | 154.3

Same assay, conditions: 300 ppm in feed (approx. 30 mg/kg/day), 7 days; testosterone-treated control: Test I 180.3, Test II 210.4; corn oil control: 66.7, 101.4

Row | SMILES | Mean Uterine Weight [mg]
17 | Fc1ccc(N(Cc2ccccc2)Cc2cccnc2)c(F)c1 [N--(2,4-difluorophenyl)-N--benzyl-3-pyridinemethanamine] | 171.4
18 | Fc1ccc(C(Nc2ccccc2Cl)c2cccnc2)cc1 (stereo not drawn) [N--(2-chlorophenyl)-α-(4-fluorophenyl)-3-pyridinemethanamine] | 157.4

Tested on: estrogen synthesis (ovarian estradiol, estrone, estriol)
Assay: Estrogen synthesis inhibition in rats: ovarian steroid concentrations after [3H]-testosterone
Assay type: in vivo, rat (immature female Wistar)
Details: 30 ppm in feed (approx. 3 mg/kg/day), 7 days; ovary; testosterone-treated control: Test I 0.41, Test II 0.17
Procedure: The ovarian steroids were extracted with 1.5 ml of 9:1 (v/v) toluene/ethanol to which had been added 25 to 100 mcg each of unlabelled estradiol, estriol, and estrone, and approximately 1000 dpm of [^14 C]-estradiol. The samples were vortexed, centrifuged at 500×g for 10 minutes, and the organic phase was transferred to a conical vial. Two additional extractions were performed on the residue in the same way. The pooled organic extract were evaporated for subsequent thin-layer chromatography.
The organic residue from each above extraction was redissolved in 9:1 (v/v) dichloromethane/methanol. The solution of each sample was applied to separate silica gel thin layer chromatography plates which contained a fluorescent indicator. The plates were developed in the first dimension with 160:38:1.5:0.5 (v/v/v/v) dichloromethane/ethyl acetate/methanol/acetic acid to within 3 cm of the top of the plate. After air-drying, the plate was developed in the second dimension with 180:19:1 (v/v/v) dichloromethane/methanol/ammonium hydroxide.
The spots were scraped from the plate using a glass wool plugged Pasteur pipet attached to a vacuum line. The steroids were eluted directly into scintillation vials by the addition of 0.2 ml of dichloromethane followed by two washes each of 2.0 ml of methanol. The organic solvent was evaporated and 10.0 ml of scintillation fluid (Beckman Ready Solv-NA) was added to the vials. Samples were analyzed by liquid scintillation spectrometry. Corrections were made based on the recoveries of the [^14 C]-steroid. Steroid concentrations are expressed as femtomoles per milligram protein.

Row | SMILES | Mean Steroid Concentration, estriol
19 | Fc1ccc(N(Cc2ccccc2)Cc2cccnc2)c(F)c1 [N--(2,4-difluorophenyl)-N--benzyl-3-pyridinemethanamine] | 0.44 femtomoles per milligram of protein
20 | Fc1ccc(C(Nc2ccccc2Cl)c2cccnc2)cc1 (stereo not drawn) [N--(2-chlorophenyl)-α-(4-fluorophenyl)-3-pyridinemethanamine] | 0.51 femtomoles per milligram of protein

Same assay, conditions: 30 ppm in feed (approx. 3 mg/kg/day), 7 days; ovary; testosterone-treated control: Test I 0.88, Test II 0.41

Row | SMILES | Mean Steroid Concentration, estrone
21 | Fc1ccc(N(Cc2ccccc2)Cc2cccnc2)c(F)c1 [N--(2,4-difluorophenyl)-N--benzyl-3-pyridinemethanamine] | 0.00 femtomoles per milligram of protein
22 | Fc1ccc(C(Nc2ccccc2Cl)c2cccnc2)cc1 (stereo not drawn) [N--(2-chlorophenyl)-α-(4-fluorophenyl)-3-pyridinemethanamine] | 0.47 femtomoles per milligram of protein

Same assay, conditions: 30 ppm in feed (approx. 3 mg/kg/day), 7 days; ovary; testosterone-treated control: Test I 2.29, Test II 0.78

Row | SMILES | Mean Steroid Concentration, estradiol
23 | Fc1ccc(N(Cc2ccccc2)Cc2cccnc2)c(F)c1 [N--(2,4-difluorophenyl)-N--benzyl-3-pyridinemethanamine] | 0.84 femtomoles per milligram of protein
24 | Fc1ccc(C(Nc2ccccc2Cl)c2cccnc2)cc1 (stereo not drawn) [N--(2-chlorophenyl)-α-(4-fluorophenyl)-3-pyridinemethanamine] | 2.67 femtomoles per milligram of protein

Same assay, conditions: 300 ppm in feed (approx. 30 mg/kg/day), 7 days; ovary; testosterone-treated control: Test I 0.41, Test II 0.17

Row | SMILES | Mean Steroid Concentration, estriol
25 | Fc1ccc(N(Cc2ccccc2)Cc2cccnc2)c(F)c1 [N--(2,4-difluorophenyl)-N--benzyl-3-pyridinemethanamine] | 0.32 femtomoles per milligram of protein
26 | Fc1ccc(C(Nc2ccccc2Cl)c2cccnc2)cc1 (stereo not drawn) [N--(2-chlorophenyl)-α-(4-fluorophenyl)-3-pyridinemethanamine] | 0.37 femtomoles per milligram of protein

Same assay, conditions: 300 ppm in feed (approx. 30 mg/kg/day), 7 days; ovary; testosterone-treated control: Test I 0.88, Test II 0.41

Row | SMILES | Mean Steroid Concentration, estrone
27 | Fc1ccc(N(Cc2ccccc2)Cc2cccnc2)c(F)c1 [N--(2,4-difluorophenyl)-N--benzyl-3-pyridinemethanamine] | 0.00 femtomoles per milligram of protein
28 | Fc1ccc(C(Nc2ccccc2Cl)c2cccnc2)cc1 (stereo not drawn) [N--(2-chlorophenyl)-α-(4-fluorophenyl)-3-pyridinemethanamine] | 0.31 femtomoles per milligram of protein

Same assay, conditions: 300 ppm in feed (approx. 30 mg/kg/day), 7 days; ovary; testosterone-treated control: Test I 2.29, Test II 0.78

Row | SMILES | Mean Steroid Concentration, estradiol
29 | Fc1ccc(N(Cc2ccccc2)Cc2cccnc2)c(F)c1 [N--(2,4-difluorophenyl)-N--benzyl-3-pyridinemethanamine] | 0.44 femtomoles per milligram of protein
30 | Fc1ccc(C(Nc2ccccc2Cl)c2cccnc2)cc1 (stereo not drawn) [N--(2-chlorophenyl)-α-(4-fluorophenyl)-3-pyridinemethanamine] | 1.64 femtomoles per milligram of protein
